In paper PMC11304739, “Identification of novel bromodomain inhibitors of Trypanosoma cruzi bromodomain factor 2 (TcBDF2) using a fluorescence polarization-based high-throughput assay” (Antimicrobial Agents and Chemotherapy, 2024):
Where two headings read alike, the source gives them in different places. One block for each compound: values may come before it.

Columns and labels:
LdBDF5 = system: LdBDF5; parameters: method as in PMID 37906637; settings: different affinities for first or second BD; cited from earlier work
[1] = system: T. cruzi Dm28c epimastigotes expressing beta-galactosidase; test: Beta-galactosidase expressing parasite assay (epimastigotes); format: cell-based; settings: Trypanosoma cruzi, 72 h
Method: T. cruzi Dm28c which expresses the Escherichia coli LacZ gene was used ([31][–][33]). Epimastigotes were incubated with the compounds (50, 25, 12.5, 6.25, and 3.125 µM). After 72 hours of treatment, the assays were developed by the addition of Chlorophenol red-β-D-galactopyranoside (100 µM final concentration) and Nonidet P-40 (0.1% final concentration). Plates were incubated for 2 to 4 hours at 37°C. Wells with β-galactosidase activity turned the media from yellow to red, and this was quantitated by absorbance at 595 nm using a Synergy HTX multi-detection microplate reader as reported previously ([31]). Normalized survival percentage was plotted against concentrations on Prism 9.0 GraphPad software. DMSO 50% was used as the 0% survival baseline. Each concentration was assayed in triplicates.
Fig 4 Trypanocidal effect on epimastigotes expressing beta-galactosidase. Epimastigotes were incubated for 72 hours with each compound (named 1 to 6 and indicated on top of each graph) at five concentrations (3.12 to 50 µM). Beta-galactosidase activity was measured, and normalized survival was plotted vs. log concentration. For IC50 calculation of iBET151 and Benznidazole (BZN) (used as positive controls), six concentrations (from 1.56 to 100 µM) were plotted and the curves were fitted using GraphPad Prism 9.0 [non-linear regression: log(inhibitor) vs. response -- Variable slope (four parameters)]. […]

recombinant TcBD2 = recombinant TcBD2 (Trypanosoma cruzi, UniProt A0A2V2V5V1); test: Thermal shift / differential scanning fluorimetry (DSF); format: binding
Sequence of recombinant TcBD2 (A0A2V2V5V1 entry or part of it): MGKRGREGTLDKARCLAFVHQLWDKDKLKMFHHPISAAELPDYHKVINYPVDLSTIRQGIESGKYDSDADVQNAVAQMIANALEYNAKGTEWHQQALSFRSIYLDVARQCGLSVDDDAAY
Method: Recombinant TcBD2 was buffered in 10 mM HEPES, pH 7.5, and 300 mM NaCl and assayed in a 96-well plate at a final concentration of 5 µM in a 25-µL volume. Compounds were added at a final concentration between 0.1 and 50 µM to calculate dissociation constants. SYPRO Orange was added as a fluorescence probe at a dilution of 1:10,000. Excitation and emission filters for the SYPRO Orange dye were set to 465 and 590 nm, respectively. The temperature was raised with a step of 2°C per minute from 25°C to 96°C, and fluorescence readings were taken at each interval in a real-time Bio-Rad Opus CFX. Data were analyzed as previously described ([22]).
Fig 3 Kd calculation using DSF. Six concentrations of each compound (compounds named 1 to 7 indicated on top of each graph) were used (from 0.1 to 50 µM), and the melting temperatures of TcBD2 with each concentration of compound obtained were used to calculate the Kds. DMSO was used as a control sample. All thermal shift assays were performed at least in triplicate with reproducibility of parameters within ±10%. The change of melting temperature versus the log of the ligand concentration was plotted and fitted as described in the Materials and Methods section.

TbBDF2 = system: TbBDF2; parameters: method as in PMID 26646171, PMID 35642518; settings: cited from earlier work
TbBDF3 [2] = system: TbBDF3; parameters: method as in PMID 26646171, PMID 35642518; settings: cited from earlier work
Dm28c epimastigotes = settings: cited from earlier work
TcBDF2 = system: TcBDF2; parameters: method as in PMID 27007774, PMID 35482332; settings: cited from earlier work
TcBDF3 = system: TcBDF3; parameters: method as in PMID 27007774, PMID 35482332; settings: cited from earlier work
BD of TbBDF2 = target: BD of TbBDF2; parameters: method as in PMID 29025975; settings: ITC; cited from earlier work
second BD of TbBDF5 = target: second BD of TbBDF5; parameters: method as in PMID 29025975; settings: ITC; cited from earlier work
TbBDF3 [3] = system: TbBDF3; parameters: method as in PMID 29025975; settings: cited from earlier work
first BD from TbBDF5 = system: first BD from TbBDF5; parameters: method as in PMID 29025975; settings: cited from earlier work
procyclic T. brucei = system: procyclic T. brucei; parameters: method as in PMID 29025975; settings: growth of procyclic T. brucei; cited from earlier work
LdBD5.1 = target: LdBD5.1; parameters: method as in PMID 37906637; settings: cited from earlier work
[4] = system: promastigotes from Leishmania mexicana; parameters: method as in PMID 37906637; settings: cited from earlier work
[5] = system: promastigotes from L. donovani; parameters: method as in PMID 37906637; settings: cited from earlier work
[6] = system: asexual form of Plasmodium falciparum; parameters: method as in PMID 29631126; settings: cited from earlier work
[7] = system: Toxoplasma tachyzoites infecting HFF cells; parameters: method as in PMID 32119930; settings: cited from earlier work
[8] = second round of experiments, six concentrations, read-out: IC50 (Figure S3, Kd calculation using DSF, second round of experiments)
[9] = thermal shift, compounds 0.1 to 50 µM, 5 µM TcBD2, read-out: Kd ± SD
[10] = read-out: IC50 against Dm28c epimastigotes

SMILES: CCn1cc(-c2cccc(C(F)(F)F)c2)c2sc(C(=N)NC3CCS(=O)(=O)CC3)cc2c1=O [I-BRD9]
binding to LdBDF5 (LdBDF5): binds

SMILES: O=C(Cn1ccnc1[N+](=O)[O-])NCc1ccccc1 [BZN, Benznidazole]
IC50 [1]: 19.8 µM

Kd (recombinant TcBD2; [8]): 1.89 µM | Kd (recombinant TcBD2; [9]): 1.91 ± 0.31 µM
SMILES: CCn1nnc2c(N3CC[C@@H](N)C3)nc(C)nc21 [Compound 1]

Kd (recombinant TcBD2; [8]): 1.92 µM | Kd (recombinant TcBD2; [9]): 1.58 ± 0.42 µM
SMILES: Cc1cc2c(NC(=O)CC(C)(C)CC(=O)O)cccc2nn1 [Compound 4]

Kd (recombinant TcBD2; [8]): 1.55 µM | Kd (recombinant TcBD2; [9]): 1.33 ± 0.22 µM
SMILES: CCn1nnc2c(N3CC[C@H](N)C3)nc(C)nc21 [Compound 2]

SMILES: Cc1sc2c(c1C)C(c1ccc(Cl)cc1)=N[C@@H](CC(=O)OC(C)(C)C)c1nnc(C)n1-2 [JQ1(+)]
binding to TbBDF2 (TbBDF2): do not bind at all | binding to TbBDF3 (TbBDF3 [2]): do not bind at all | IC50 (Dm28c epimastigotes; [10]): 7.14 µM | binding to TcBDF2 (TcBDF2): does not interact | binding to TcBDF3 (TcBDF3): binds

Kd (recombinant TcBD2; [8]): 3.36 µM | Kd (recombinant TcBD2; [9]): 3.52 ± 0.12 µM
SMILES: Cc1cc2c(NS(=O)(=O)c3c(C)noc3C)cccc2nn1 [Compound 5]

Kd (recombinant TcBD2; [8]): 3.15 µM | Kd (recombinant TcBD2; [9]): 2.81 ± 0.31 µM
SMILES: CC(=O)Nc1nc(C)c(S(=O)(=O)Nc2cccc3nnc(C)cc23)s1 [Compound 7]

SMILES: CCOC(=O)Nc1cc(-c2ccc(C)c(NS(C)(=O)=O)c2)nn2c(C)nnc12 [BSP, Bromosporine]
IC50 (Dm28c epimastigotes; read-out: IC50 against parasites): > 50 µM | binding to TcBDF2 (TcBDF2): bind | binding to TcBDF3 (TcBDF3): bind | binding to LdBDF5 (LdBDF5): binds

SMILES: CCCOc1ccn2c(C(C)=O)cc(-c3ccccc3S(C)(=O)=O)c2c1 [GSK2801]
Kd (BD of TbBDF2): 15 µM | Kd (second BD of TbBDF5): 83 µM | binding to TbBDF3 (TbBDF3 [3]): does not bind | binding to first BD from TbBDF5 (first BD from TbBDF5): does not bind | IC50 (procyclic T. brucei): 1.37 µM

Kd (recombinant TcBD2; [8]): 2.14 µM | Kd (recombinant TcBD2; [9]): 2.41 ± 0.32 µM
SMILES: Cc1cc(C(=O)NC2CCc3nccn3C2)c2c(C)noc2n1 (stereo not shown) [Compound 3]

SMILES: COc1ccc(CCc2nc3cc(-c4c(C)noc4C)ccc3n2C[C@H](C)N2CCOCC2)cc1Cl [SGC-CBP30]
Kd (LdBD5.1): 0.281 µM | IC50 [4]: 7.16 µM | IC50 [5]: 6.16 µM | selectivity index ([6]; calculated using a human HEK 293 cell line): around 7 | IC50 ([6]; in vitro): 3.2 µM | binding to LdBDF5 (LdBDF5): binds

SMILES: Cc1nnc2c3ccccc3c(N[C@@H](C)[C@H](c3ccccc3)N(C)C)nn12 [L-Moses]
IC50 [7]: ~0.6 µM

Kd (recombinant TcBD2; [8]): 3.11 µM | Kd (recombinant TcBD2; [9]): 3.31 ± 0.26 µM
SMILES: Cc1cc2c(NC(=O)c3ccccc3C(=O)O)cccc2nn1 [Compound 6]

SMILES: COc1cc2c(cc1-c1c(C)noc1C)ncc1[nH]c(=O)n([C@H](C)c3ccccn3)c12 [iBET-151]
IC50 [1]: 7.75 µM | Kd (TbBDF2): 225 µM | Kd (TbBDF3 [2]): 175 µM | IC50 (Dm28c epimastigotes; [10]): 6.35 µM | binding to TcBDF2 (TcBDF2): bind | binding to TcBDF3 (TcBDF3): bind
